In PMC6017000, “Distribution Assessments of Coumarins from Angelicae Pubescentis Radix in Rat Cerebrospinal Fluid and Brain by Liquid Chromatography Tandem Mass Spectrometry Analysis” (Molecules : A Journal of Synthetic Chemistry and Natural …, 2018):

test: Stability of QC samples in aCSF (freeze-thaw, room temperature); assay type: physicochemical; settings: aCSF QC 5 ng/mL, room temperature 24 h, percentage remaining, n = 5

Row | Compound | Stability room temperature [%]
1 | COc1c2ccoc2cc2oc(=O)ccc12 [Compound 3, bergapten] | 106.76±8.57
2 | CC(C)(O)[C@H](O)COc1c2ccoc2cc2oc(=O)ccc12 [Compound 8, oxypeucedanin hydrate] | 96.96±3.22
3 | COc1ccc2ccc(=O)oc2c1CC=C(C)C [Compound 10, osthole] | 95.92±3.20
4 | COc1ccc2ccc(=O)oc2c1CC(O)C(C)(C)O (stereo not drawn) [Compound 11, Meranzin hydrate] | 92.02±3.40

same assay, conditions: aCSF QC 5 ng/mL, three freeze-thaw cycles, percentage remaining, n = 5

Row | Compound | Stability Freeze-thaw [%]
5 | COc1c2ccoc2cc2oc(=O)ccc12 [Compound 3, bergapten] | 92.34±7.48
6 | CC(C)(O)[C@H](O)COc1c2ccoc2cc2oc(=O)ccc12 [Compound 8, oxypeucedanin hydrate] | 97.57±5.59
7 | COc1ccc2ccc(=O)oc2c1CC=C(C)C [Compound 10, osthole] | 94.43±7.49
8 | COc1ccc2ccc(=O)oc2c1CC(O)C(C)(C)O (stereo not drawn) [Compound 11, Meranzin hydrate] | 96.16±10.07

same assay, conditions: aCSF QC 40 ng/mL, room temperature 24 h, percentage remaining, n = 5

Row | Compound | Stability room temperature [%]
9 | COc1c2ccoc2cc2oc(=O)ccc12 [Compound 3, bergapten] | 94.61±4.23
10 | CC(C)(O)[C@H](O)COc1c2ccoc2cc2oc(=O)ccc12 [Compound 8, oxypeucedanin hydrate] | 95.09±3.26
11 | COc1ccc2ccc(=O)oc2c1CC=C(C)C [Compound 10, osthole] | 94.93±5.05

same assay, conditions: aCSF QC 40 ng/mL, three freeze-thaw cycles, percentage remaining, n = 5

Row | Compound | Stability Freeze-thaw [%]
12 | COc1c2ccoc2cc2oc(=O)ccc12 [Compound 3, bergapten] | 93.24±6.30
13 | CC(C)(O)[C@H](O)COc1c2ccoc2cc2oc(=O)ccc12 [Compound 8, oxypeucedanin hydrate] | 94.73±7.34
14 | COc1ccc2ccc(=O)oc2c1CC=C(C)C [Compound 10, osthole] | 95.90±8.12

same assay, conditions: aCSF QC 80 ng/mL, room temperature 24 h, percentage remaining, n = 5

Row | Compound | Stability room temperature [%]
15 | COc1c2ccoc2cc2oc(=O)ccc12 [Compound 3, bergapten] | 99.54±7.55
16 | CC(C)(O)[C@H](O)COc1c2ccoc2cc2oc(=O)ccc12 [Compound 8, oxypeucedanin hydrate] | 103.37±5.33
17 | COc1ccc2ccc(=O)oc2c1CC=C(C)C [Compound 10, osthole] | 93.50±6.38

same assay, conditions: aCSF QC 80 ng/mL, three freeze-thaw cycles, percentage remaining, n = 5

Row | Compound | Stability Freeze-thaw [%]
18 | COc1c2ccoc2cc2oc(=O)ccc12 [Compound 3, bergapten] | 97.23±5.17
19 | CC(C)(O)[C@H](O)COc1c2ccoc2cc2oc(=O)ccc12 [Compound 8, oxypeucedanin hydrate] | 95.96±5.37
20 | COc1ccc2ccc(=O)oc2c1CC=C(C)C [Compound 10, osthole] | 97.71±2.91

same assay, conditions: aCSF QC 120 ng/mL, room temperature 24 h, percentage remaining, n = 5

Row | Compound | Stability room temperature [%]
21 | COc1ccc2ccc(=O)oc2c1CC(O)C(C)(C)O (stereo not drawn) [Compound 11, Meranzin hydrate] | 99.09±5.56

same assay, conditions: aCSF QC 120 ng/mL, three freeze-thaw cycles, percentage remaining, n = 5

Row | Compound | Stability Freeze-thaw [%]
22 | COc1ccc2ccc(=O)oc2c1CC(O)C(C)(C)O (stereo not drawn) [Compound 11, Meranzin hydrate] | 95.58±7.24

same assay, conditions: aCSF QC 240 ng/mL, room temperature 24 h, percentage remaining, n = 5

Row | Compound | Stability room temperature [%]
23 | COc1ccc2ccc(=O)oc2c1CC(O)C(C)(C)O (stereo not drawn) [Compound 11, Meranzin hydrate] | 103.10±9.99

same assay, conditions: aCSF QC 240 ng/mL, three freeze-thaw cycles, percentage remaining, n = 5

Row | Compound | Stability Freeze-thaw [%]
24 | COc1ccc2ccc(=O)oc2c1CC(O)C(C)(C)O (stereo not drawn) [Compound 11, Meranzin hydrate] | 94.40±4.03

test: Rat CSF distribution after oral administration of APRE (UPLC-MS/MS); settings: rat, CSF, po, 4 g/kg
Method: Aliquots of 50 μL CSF samples with IS (10 μL, 200 ng/mL) were extracted with 600 μL ethyl acetate.
The UPLC-MS/MS system consisted of a Shimadzu Nexera UPLC instrument connected to a Shimadzu LCMS-8050 mass spectrometer via the electrospray ionization interface (Shimadzu Corp., Kyoto, Japan). Samples were separated on an ACQUITY UPLC BEH RP18 column (2.1 × 100 mm, 1.7 µm, Waters, Milford, MA, USA) equipped with a BEH RP18 guard column (2.1 × 5 mm, 1.7 µm, Waters, Milford, MA, USA). The column temperature was 30 °C, and the flow rate was 0.4 mL/min. The sample injection volume was 5 µL. The mobile phases consisted of 0.1% (v/v) formic acid in water (A) and ACN (B). […] The precursor ion, product ion, Q1, Q3, CE and DT were optimized.
(§1) The time schedule included 9 time-points, and six rats were sampled at each time-point. The rats were fasted overnight with free access to water before the experiment. APRE was suspended with the normal saline and orally administered to the rats at a single dose of 4 g/kg. The animals had free access to water during the experiment.
Rats were anesthetized by an intraperitoneal dose of chloral hydrate (350 mg/kg) at 0.25, 0.5, 1, 1.5, 2, 4, 6, 8, 12 h after oral administration of APRE. A dorsal midline cutaneous incision was made, and the muscle at the craniocervical junction was bluntly dissected to expose the atlanto-occipital membrane. The cisterna magna was punctured with a thin syringe needle, and a microinjector connected with the needle was used to collect the interior CSF carefully [27]. Clear CSF was transferred to a clean microtube and frozen at −80 °C until further use. Blood contaminated samples were excluded.
(§2) Results were expressed as the mean ± standard deviation (SD). The UPLC-MS/MS data were processed with Labsolutions 5.65 software (Shimadzu Corp., Kyoto, Japan). The pharmacokinetic parameters were calculated with the Drug and Statistics 2.0 software (Mathematical Pharmacology Professional Committee of China, Shanghai, China).

Row | Compound | AUC(0-inf) [ng·h/mL] | AUC(0-t) [ng·h/mL] | Cmax [ng/mL] | Tmax [h] | half-life [h]
25 | COc1c2ccoc2cc2oc(=O)ccc12 [Compound 3, bergapten] | 41.3 ± 5.77 | 27.1 ± 2.26 | 3.95 ± 0.24 | 1.46 ± 0.84 | 6.72 ± 1.95
26 | CC(C)(O)[C@H](O)COc1c2ccoc2cc2oc(=O)ccc12 [Compound 8, oxypeucedanin hydrate] | 73.6 ± 11.8 | 54 ± 8.2 | 7.47 ± 1.69 | 2 ± 1.14 | 6.32 ± 1.95
27 | COc1ccc2ccc(=O)oc2c1CC=C(C)C [Compound 10, osthole] | 30.5 ± 1.53 | 27.7 ± 2.88 | 4.31 ± 1.49 | 2.83 ± 2.84 | 3.19 ± 1.16
28 | COc1ccc2ccc(=O)oc2c1CC(O)C(C)(C)O (stereo not drawn) [Compound 11, Meranzin hydrate] | 754 ± 142 | 676 ± 108 | 129 ± 20.2 | 2.17 ± 0.98 | 3.37 ± 0.75

test: Stability of QC samples in rat brain homogenate (freeze-thaw, room temperature); assay type: physicochemical; settings: rat brain QC 5 ng/mL, room temperature 24 h, percentage remaining, n = 5

Row | Compound | Stability room temperature [%]
29 | COc1c2ccoc2cc2oc(=O)ccc12 [Compound 3, bergapten] | 88.02±2.73
30 | CC(C)(O)[C@H](O)COc1c2ccoc2cc2oc(=O)ccc12 [Compound 8, oxypeucedanin hydrate] | 97.72±9.35
31 | COc1ccc2ccc(=O)oc2c1CC=C(C)C [Compound 10, osthole] | 99.12±3.06
32 | COc1ccc2ccc(=O)oc2c1CC(O)C(C)(C)O (stereo not drawn) [Compound 11, Meranzin hydrate] | 97.21±8.86

same assay, conditions: rat brain QC 5 ng/mL, three freeze-thaw cycles, percentage remaining, n = 5

Row | Compound | Stability Freeze-thaw [%]
33 | COc1c2ccoc2cc2oc(=O)ccc12 [Compound 3, bergapten] | 89.97±6.29
34 | CC(C)(O)[C@H](O)COc1c2ccoc2cc2oc(=O)ccc12 [Compound 8, oxypeucedanin hydrate] | 96.57±11.87
35 | COc1ccc2ccc(=O)oc2c1CC=C(C)C [Compound 10, osthole] | 95.53±4.36
36 | COc1ccc2ccc(=O)oc2c1CC(O)C(C)(C)O (stereo not drawn) [Compound 11, Meranzin hydrate] | 94.71±4.63

same assay, conditions: rat brain QC 80 ng/mL, room temperature 24 h, percentage remaining, n = 5

Row | Compound | Stability room temperature [%]
37 | COc1c2ccoc2cc2oc(=O)ccc12 [Compound 3, bergapten] | 86.01±3.16
38 | CC(C)(O)[C@H](O)COc1c2ccoc2cc2oc(=O)ccc12 [Compound 8, oxypeucedanin hydrate] | 96.02±6.30
39 | COc1ccc2ccc(=O)oc2c1CC=C(C)C [Compound 10, osthole] | 101.64±8.78

same assay, conditions: rat brain QC 80 ng/mL, three freeze-thaw cycles, percentage remaining, n = 5

Row | Compound | Stability Freeze-thaw [%]
40 | COc1c2ccoc2cc2oc(=O)ccc12 [Compound 3, bergapten] | 85.30±8.42
41 | CC(C)(O)[C@H](O)COc1c2ccoc2cc2oc(=O)ccc12 [Compound 8, oxypeucedanin hydrate] | 94.94±10.27
42 | COc1ccc2ccc(=O)oc2c1CC=C(C)C [Compound 10, osthole] | 98.42±10.02

same assay, conditions: rat brain QC 160 ng/mL, room temperature 24 h, percentage remaining, n = 5

Row | Compound | Stability room temperature [%]
43 | COc1c2ccoc2cc2oc(=O)ccc12 [Compound 3, bergapten] | 86.84±6.63
44 | CC(C)(O)[C@H](O)COc1c2ccoc2cc2oc(=O)ccc12 [Compound 8, oxypeucedanin hydrate] | 97.99±6.44
45 | COc1ccc2ccc(=O)oc2c1CC=C(C)C [Compound 10, osthole] | 96.43±4.95

same assay, conditions: rat brain QC 160 ng/mL, three freeze-thaw cycles, percentage remaining, n = 5

Row | Compound | Stability Freeze-thaw [%]
46 | COc1c2ccoc2cc2oc(=O)ccc12 [Compound 3, bergapten] | 90.70±9.46
47 | CC(C)(O)[C@H](O)COc1c2ccoc2cc2oc(=O)ccc12 [Compound 8, oxypeucedanin hydrate] | 102.42±7.10
48 | COc1ccc2ccc(=O)oc2c1CC=C(C)C [Compound 10, osthole] | 98.13±6.85

same assay, conditions: rat brain QC 200 ng/mL, room temperature 24 h, percentage remaining, n = 5

Row | Compound | Stability room temperature [%]
49 | COc1ccc2ccc(=O)oc2c1CC(O)C(C)(C)O (stereo not drawn) [Compound 11, Meranzin hydrate] | 96.58±7.80

same assay, conditions: rat brain QC 200 ng/mL, three freeze-thaw cycles, percentage remaining, n = 5

Row | Compound | Stability Freeze-thaw [%]
50 | COc1ccc2ccc(=O)oc2c1CC(O)C(C)(C)O (stereo not drawn) [Compound 11, Meranzin hydrate] | 97.28±10.13

same assay, conditions: rat brain QC 400 ng/mL, room temperature 24 h, percentage remaining, n = 5

Row | Compound | Stability room temperature [%]
51 | COc1ccc2ccc(=O)oc2c1CC(O)C(C)(C)O (stereo not drawn) [Compound 11, Meranzin hydrate] | 95.82±9.16

same assay, conditions: rat brain QC 400 ng/mL, three freeze-thaw cycles, percentage remaining, n = 5

Row | Compound | Stability Freeze-thaw [%]
52 | COc1ccc2ccc(=O)oc2c1CC(O)C(C)(C)O (stereo not drawn) [Compound 11, Meranzin hydrate] | 104.50±7.46

test: Rat brain distribution after oral administration of APRE (UPLC-MS/MS); settings: log (AUC0→∞/brain/AUC0→∞/plasma), rat, oral APRE
Method: Each weighed brain sample was homogenized with a 2-fold volume of normal saline solution. IS solution (10 μL, 200 ng/mL) was added to 300 μL of the homogenate. The mixture was then extracted with a 3-fold volume of ethyl acetate. The mixture was vortexed for 1 min and centrifuged at 16,000× g for 10 min. The supernatant was transferred out and dried under a gentle constant flow of nitrogen. The residue was then dissolved with 100 μL of MeOH and ultrasonically (power 250 W, frequency 40 KHz) extracted for 10 min. After centrifugation at 16,000× g for 10 min, the supernatant was drawn out into a clean vial, and 5 μL of each were injected into the UPLC–MS/MS system for analysis.
The UPLC-MS/MS system consisted of a Shimadzu Nexera UPLC instrument connected to a Shimadzu LCMS-8050 mass spectrometer via the electrospray ionization interface (Shimadzu Corp., Kyoto, Japan). Samples were separated on an ACQUITY UPLC BEH RP18 column (2.1 × 100 mm, 1.7 µm, Waters, Milford, MA, USA) equipped with a BEH RP18 guard column (2.1 × 5 mm, 1.7 µm, Waters, Milford, MA, USA). The column temperature was 30 °C, and the flow rate was 0.4 mL/min. The sample injection volume was 5 µL. The mobile phases consisted of 0.1% (v/v) formic acid in water (A) and ACN (B). The LC gradient elution program and mass working parameters were the same as our previous report [6]. […] The precursor ion, product ion, Q1, Q3, CE and DT were optimized.
as §1
Cardiac perfusion was carried out quickly with physiological saline after CSF collection at each time-point. The rat brains were separated, weighed and then stored at −80 °C until treatment.
as §2

Row | Compound | log BBexpt.
53 | CC(C)(O)[C@H](O)COc1c2ccoc2cc2oc(=O)ccc12 [Compound 8, oxypeucedanin hydrate] | −0.16
54 | COc1ccc2ccc(=O)oc2c1CC(O)C(C)(C)O (stereo not drawn) [Compound 11, Meranzin hydrate] | −0.10

same assay, conditions: rat brain, oral APRE 4 g/kg, mean ± SD, n = 6

Row | Compound | AUC0→t [µg·h/kg] | AUC0→∞ [µg·h/kg] | CLz/F [g/h/kg] | Vz/F [g/kg]
55 | COc1c2ccoc2cc2oc(=O)ccc12 [Compound 3, bergapten] | 418.20 ± 93.60 | 449.85 ± 97.52 | 3.22 ± 0.85 | 10.76 ± 4.73
56 | CC(C)(O)[C@H](O)COc1c2ccoc2cc2oc(=O)ccc12 [Compound 8, oxypeucedanin hydrate] | 313.39 ± 59.25 | 397.36 ± 66.83 | 2.04 ± 0.34 | 14.45 ± 3.95
57 | COc1ccc2ccc(=O)oc2c1CC=C(C)C [Compound 10, osthole] | 1327.91 ± 341.99 | 2105.63 ± 1100.15 | 13.96 ± 7.04 | 60.18 ± 25.11
58 | COc1ccc2ccc(=O)oc2c1CC(O)C(C)(C)O (stereo not drawn) [Compound 11, Meranzin hydrate] | 1752.16 ± 249.82 | 1948.10 ± 305.84 | 0.86 ± 0.13 | 4.46 ± 1.60

same assay, conditions: rat, brain, po, 4 g/kg

Row | Compound | Tmax [h] | half-life [h]
59 | COc1c2ccoc2cc2oc(=O)ccc12 [Compound 3, bergapten] | 1.21 ± 1.53 | 2.34 ± 1.04
60 | CC(C)(O)[C@H](O)COc1c2ccoc2cc2oc(=O)ccc12 [Compound 8, oxypeucedanin hydrate] | 0.96 ± 0.86 | 4.91 ± 0.91
61 | COc1ccc2ccc(=O)oc2c1CC=C(C)C [Compound 10, osthole] | 0.35 ± 0.14 | 5.36 ± 2.15
62 | COc1ccc2ccc(=O)oc2c1CC(O)C(C)(C)O (stereo not drawn) [Compound 11, Meranzin hydrate] | 1.29 ± 1.5 | 3.64 ± 1.4

same assay, conditions: rat, brain/plasma, po, 4 g/kg

Row | Compound | Kp
63 | COc1c2ccoc2cc2oc(=O)ccc12 [Compound 3, bergapten] | 0.08
64 | COc1ccc2ccc(=O)oc2c1CC=C(C)C [Compound 10, osthole] | 0.15
